# According to patent US20030088057A1, “PEPTIDE SUBSTRATES PHOSPHORYLATED BY P21-ACTIVAGED PROTEIN KINASE STATEMENT REGARDING FEDERALLY SPONSORED REASEARCH OR DEVELOPMENT” (priority 1998, published 2003):
# Entries after “also recorded” stand apart in the source; their conditions may differ. Like-named read-outs stand apart in the source and are kept apart here. No end group written: not given here.
# Columns and labels:
# γ-PAK [1] = molecular target: T1, γ-PAK (Oryctolagus cuniculus, UniProt Q29502); test: Phosphorylation of heptapeptides by Cdc42-activated γ-PAK with ATP(Mg) and ATP(Mn); format: biochemical, rabbit; settings: γ-PAK 2.5 units, Cdc42(GTPγS)-activated; 10 mM MgCl2 or 6 mM MnCl2
# T1 construct: γ-PAK was purified from rabbit reticulocytes to apparent homogeneity; from tissue; host or cells: rabbit reticulocytes (γ-PAK)
# T1 sequence (Q29502 2-524 limits assumed): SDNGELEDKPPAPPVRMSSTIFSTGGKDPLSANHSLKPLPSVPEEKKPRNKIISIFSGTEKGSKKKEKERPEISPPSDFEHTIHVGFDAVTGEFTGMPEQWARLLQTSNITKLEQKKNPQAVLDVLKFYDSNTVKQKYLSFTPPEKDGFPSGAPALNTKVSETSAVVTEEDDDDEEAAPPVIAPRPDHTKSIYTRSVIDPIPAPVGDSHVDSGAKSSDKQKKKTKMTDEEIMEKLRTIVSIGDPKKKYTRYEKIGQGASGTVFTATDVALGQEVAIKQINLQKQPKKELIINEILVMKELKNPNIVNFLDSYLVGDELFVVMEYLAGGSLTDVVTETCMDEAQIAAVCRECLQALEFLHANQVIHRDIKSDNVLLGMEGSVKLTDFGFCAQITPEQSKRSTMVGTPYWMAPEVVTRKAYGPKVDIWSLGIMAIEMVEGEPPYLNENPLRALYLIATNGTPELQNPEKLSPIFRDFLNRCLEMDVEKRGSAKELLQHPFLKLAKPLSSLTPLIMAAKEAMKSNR
# Method: Synthetic heptapeptides were used to examine the activity of γ-PAK with manganese and magnesium. The peptides were incubated with γ-PAK (2.5 units), activated by autophosphorylation in the presence of Cdc42(GTPγS) and 10 mM MgCl2 or 6 mM MnCl2 as described under Experimental Procedures.
# γ-PAK [2] = test: Rates of phosphorylation of synthetic peptides by γ-PAK; format: biochemical, rabbit; settings: for substrate for γ-PAK (in words): synthetic peptides; for 32P incorporated, %: AKRASAA taken as 100%; for rate of phosphorylation compared to AKRASAA: relative to AKRASAA
# Source text: (§1) A. Materials. γ-PAK was purified from rabbit reticulocytes to apparent homogeneity by chromatography on DEAE-cellulose, SP-Sepharose, protamine agarose, and FPLC on Mono S and Mono Q. Histone I (type IIIS), mixed histone (type IIAS), trypsin (L-1-tosylamido-2-phenylethyl chloromethyl ketone treated), soybean trypsin inhibitor, bovine serum albumin (fatty acid free), and myelin basic protein were purchased from Sigma. Purified histones 2B and 4 were purchased from Boehringer-Mannheim. Myosin light chain from rabbit skeletal muscle was a gift from Dr. James Stull, University of Texas Southwestern Medical Center, Dallas, Tex.; rat prolactin was provided by Dr. Ameae Walker, University of California, Riverside, Calif.; and the purified catalytic subunit of cAMP-dependent protein kinase from bovine heart was a gift from Dr. William H. Fletcher, J. L. Pettis Memorial V. A. Hospital, Loma Linda, Calif. Protein kinase C was purified from bovine brain according to the procedure of Walton et al. [Walton, G. M., et al., Anal Biochem., 161:425-437 (1987)], with modifications [Venema, R. C., et al., J. Biol. Chem., 266:5298-5302 (1991)]. The clone for GST-Cdc42 was generously provided by Dr. Channing Der, University of North Carolina, Chapel Hill, N.C. Cellulose thin-layer chromatography sheets were from Kodak.
# (§2) D. Phosphorylation Assays. Phosphorylation of protein substrates was carried out in 35 μL reaction mixtures containing 20 mM Tris-HCl, pH 7.4, 10 mM MgCl2, 30 mM 2-mercaptoethanol, 0.2 mM ATP (specific activity =1000 cpm/pmol), 2 μg of protein substrate, and 20 units of active γ-PAK (an enzyme unit is defined as the amount of enzyme that incorporates 1 pmol of phosphate into histone IIAS/ min at 30°. Under these conditions, phosphate incorporation was linear and initial rates of phosphorylation were measured. After incubation at 30° C. for 15 min, reactions were terminated by the addition of 5 μL of 100 mM nonlabeled ATP and sample buffer for gel electrophoresis [Hathaway, G. M., et al., Methods Enzymol., 60:495-511 (1979)]. Reaction mixtures were subjected to SDS-PAGE on 15% polyacrylamide gels followed by autoradiography. Phosphorylation was quantified by excising the protein band and counting the incorporated ^32P in a liquid scintillation counter. The specific activity of γ-PAK was 400 pmol min^−1 μg^−1 as reported previously using 0.2 mM ATP and 1 mg/mL mixed histone as substrate [Rooney, R. D., et al., (1996), supra].
# (§3) Assays with peptides (I mM) were carried out with γ-PAK (1.6-5.6 units) in 25 μL reaction mixtures incubated for 30 min at 30° C. under conditions described above, except that 0.4 mg/mL of bovine serum albumin was added and the specific activity of ATP was 300-2000 cpm/pmol. Reactions were terminated with 5 μL of 100 mM ATP, and the amount of ^32p incorporated was quantitated by precipitation of 20 μL aliquots on P81 phosphocellulose paper with 75 mM H3PO4 as described previously [Bensen, E. S., et al., Biochim. Biophys. Acta, 1292:249-258 (1996)]. Peptides containing only one basic amino acid were analyzed by thin-layer electrophoresis on cellulose sheets for 2 h at 600 V with pyridine/acetic acid/water (10:100:890), pH 3.5, as solvent, as described previously [Bensen, E. S., et al., supra]. Activation of γ-PAK by autophosphorylation in the presence of Cdc42(GTPγS) was performed as previously described [Jakobi, R., et al., supra]. γ-PAK was also activated by limited digestion with trypsin as described previously [Rooney, R. D., et al., (1996), supra].
# Target sequence in this assay (Q29502 249-500 limits assumed): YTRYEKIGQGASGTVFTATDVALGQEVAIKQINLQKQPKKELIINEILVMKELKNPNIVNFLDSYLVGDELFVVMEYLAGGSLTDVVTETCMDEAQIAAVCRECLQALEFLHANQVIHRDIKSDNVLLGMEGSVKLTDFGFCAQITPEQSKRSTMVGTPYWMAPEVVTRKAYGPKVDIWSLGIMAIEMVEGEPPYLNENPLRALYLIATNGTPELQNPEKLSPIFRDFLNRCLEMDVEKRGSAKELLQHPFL
# γ-PAK [3] = test: Kinetic parameters (Km, Vmax) for phosphorylation of synthetic peptides by γ-PAK; format: biochemical, rabbit; settings: for Km: read-out: Km
# Method: as §3
# Target sequence in this assay (Q29502 249-500 limits assumed): as above
# PKA = molecular target: T2, PKA (Bos taurus, UniProt P00517); test: Rates of phosphorylation of synthetic peptides by PKA; format: biochemical, bovine; settings: for 32P incorporated: PKA (10.5 units), 0.14 mM ATP; for 32P incorporated, %: PKA, AKRASAA taken as 100%
# T2 construct: the purified catalytic subunit of cAMP-dependent protein kinase from bovine heart was a gift; from tissue; host or cells: bovine heart (gift from Dr. William H. Fletcher)
# Source text: as §1, with “Myosin light chain from rabbit skeletal muscle was a gift from Dr. James Stull, University of Texas Southwestern Medical Center, Dallas, Tex.; rat prolactin was provided by Dr. Ameae Walker, University of California, Riverside, Calif.; and the purified catalytic subunit of cAMP-dependent protein kinase from bovine heart was a gift from Dr. William H. Fletcher, J. L. Pettis Memorial V. A. Hospital, Loma Linda, Calif.” left out
# (§4) Reactions with PKA (10.5 units) were carried out under the same conditions as with γ-PAK except that 0.14 mM ATP was used. Reactions with PKC (3.4 units) were performed as with PKA, with the addition of 0.4 mM CaCl2, phosphatidylinositol (15 μg/mL), phosphatidylserine (15 μg/ mL), and 1,2-diolein (3 μg/mL), as described [Tuazon, P. T., et al., (1989), supra]. A unit of PKA or PKC is defined as the amount of enzyme that incorporates 1 pmol of phosphate/min at 30° C. into histone IIAS or histone 1, respectively.
# PKA and PKC are known to require basic amino acids on the N-terminal side of the phosphorylatable serine/ threonine. To distinguish their substrate specificities from that of γ-PAK, the relative rates of phosphorylation were determined with the synthetic peptide substrates using the conditions for γ-PAK, with the addition of Ca^2+ and phospholipids for PKC.
# PKC = test: Rates of phosphorylation of synthetic peptides by PKC; format: biochemical, bovine; settings: for 32P incorporated: PKC (3.4 units), with Ca2+ and phospholipids, 0.14 mM ATP; for 32P incorporated, %: PKC, AKRASAA taken as 100%
# Source text: as §1, §4
# PKA and PKC are known to require basic amino acids on the N-terminal side of the phosphorylatable serine/ threonine. To distinguish their substrate specificities from that of γ-PAK, the relative rates of phosphorylation were determined with the synthetic peptide substrates using the conditions for γ-PAK, with the addition of Ca^2+ and phospholipids for PKC. The rates shown in Table 5 are calculated with equivalent units of enzyme; the rate of phosphorylation of the peptide AKRASAA (SEQ ID NO:6) is taken as 100% for all three enzymes. As would be expected, PKA preferentially phosphorylated the peptides that contained RR or RK at the −3 and −2 positions and with […] residues or proline at the −4 and −1 positions inhibitory. PKC recognized SKR>RKS>KKS. The most notable difference between γ-PAK and PKA or PKC is the effect of acidic residues on the susceptibility of the peptide to be phosphorylated. An acidic residue in the −1 or −4 position was beneficial for γ-PAK but was detrimental for both PKA and PKC (Table 5). […] In addition, γ-PAK could not tolerate an arginine in the −3 position when lysine was in the −2 position.
# γ-PAK [4] = test: Phosphorylation of protein substrates by γ-PAK; format: biochemical, rabbit; settings: for substrate for γ-PAK (in words): proteins
# Method: as §2
# Target sequence in this assay (Q29502 249-524 limits assumed): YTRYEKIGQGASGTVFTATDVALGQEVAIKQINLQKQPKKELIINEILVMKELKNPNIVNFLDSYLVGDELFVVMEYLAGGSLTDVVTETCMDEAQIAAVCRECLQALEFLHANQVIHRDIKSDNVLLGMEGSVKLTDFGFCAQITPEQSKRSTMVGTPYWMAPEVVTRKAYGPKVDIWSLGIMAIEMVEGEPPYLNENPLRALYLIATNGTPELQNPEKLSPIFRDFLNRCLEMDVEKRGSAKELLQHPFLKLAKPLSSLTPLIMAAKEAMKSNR
# A number of proteins were examined as substrates, and their relative rates of phosphorylation were compared (Table 6).
# [5] = Cdc42(GTPγS)-activated γ-PAK, peptide 1 mM, KKRKSAA = 100
# [6] = proteolytically (trypsin) activated γ-PAK, peptide 1 mM, compared to KKRKSAA = 100
# [7] = proteolytically activated γ-PAK (5.6 units), peptide 1 mM, 30 min at 30° C.
# [8] = Table 2, influence of basic amino acids, γ-PAK 1.6 units, ATP 0.2 mM
# [9] = γ-PAK, calculated with equivalent units of enzyme
# [10] = Table 3, influence of acidic amino acids
# [11] = Table 4, influence of proline and glycine
Substance,rel rate (%) (γ-PAK [2]; [5]),rel rate (%) (γ-PAK [2]; [6]),32P incorporated (γ-PAK [2]; [7]) [pmol/min/µg],substrate for γ-PAK (in words) (γ-PAK [2]),"32P incorporated, % (γ-PAK [2]; γ-PAK) [%]",32P incorporated (γ-PAK [2]; [9]) [pmol/unit],32P incorporated (PKA) [pmol/unit],"32P incorporated, % (PKA) [%]",32P incorporated (PKC) [pmol/unit],"32P incorporated, % (PKC) [%]",Vmax (γ-PAK [3]; [10]) [pmol/min],Km (γ-PAK [3]; [10]) [µM],overall rate of phosphorylation (Vmax/Km) compared to AKRASAA (γ-PAK [3]) [fold],substrate for γ-PAK (in words) (γ-PAK [4]),also measured
AKAASAA (AKAASAA-NH2) [synthetic peptide with an amide C-terminal group],3,2,5,did not serve as substrate; also recorded: could not be phosphorylated,–,–,–,–,–,–,–,–,–,–,phosphorylation using ATP(Mg) or ATP(Mn) (in words) (γ-PAK [1]): not phosphorylated; Km (γ-PAK [3]; [8]): > 5000 µM
AKKASAA (AKKASAA-NH2) [synthetic peptide with an amide C-terminal group],–,–,–,poor substrates,–,–,–,–,–,–,–,–,–,–,phosphorylation using ATP(Mg) or ATP(Mn) (in words) (γ-PAK [1]): not phosphorylated
AKRASAA (AKRASAA-NH2) [synthetic peptide with an amide C-terminal group],189,141,426,–,100,26.8,4.8,100,3.0,100,11.04,460,–,–,Vmax (γ-PAK [3]; [8]): 1.04 pmol/min; Km (γ-PAK [3]; [8]): 460 µM; Vmax (γ-PAK [3]; [11]): 1.04 pmol/min; Km (γ-PAK [3]; [11]): 460 µM
AKRASEA (AKRASEA-NH2) [synthetic peptide with an amide C-terminal group],88,108,326,–,68,18.3,3.6,75,0.2,6,2.22,1420,0.7,–,rate of phosphorylation compared to AKRASAA (γ-PAK [2]; γ-PAK): 71%; increase of Km compared to AKRASAA (γ-PAK [3]): ~3 fold
EKRASAA (EKRASAA-NH2) [synthetic peptide with an amide C-terminal group],151,160,484,–,113,30.2,1.7,4,0.1,3,2.48,890,1.3,–,rate of phosphorylation compared to AKRASAA (γ-PAK [2]; γ-PAK): 113%; increase of Km compared to AKRASAA (γ-PAK [3]): 2 fold; Vmax (γ-PAK [3]; text summary b32): 2.48 pmol/min
PKRASAA (PKRASAA-NH2) [synthetic peptide with an amide C-terminal group],184,209,636,–,151,40.5,6.9,–,8.7,264,–,–,2,–,decrease of Km compared to AKRASAA (γ-PAK [3]): ≈ 2 fold; increase of Vmax compared to AKRASAA (γ-PAK [3]): no effect; Vmax (γ-PAK [3]; [11]): 1.10 pmol/min; Km (γ-PAK [3]; [11]): 240 µM
RKKKSAA (RKKKSAA-NH2) [synthetic peptide with an amide C-terminal group],3,0,0,poor substrates,0,0.1,5.4,–,3.1,94,–,–,–,–,–
casein,–,–,–,–,–,–,–,–,–,–,–,–,–,not substrates,–
cdc42: small G protein; not a substrate for γ-PAK (data not shown),–,–,–,–,–,–,–,–,–,–,–,–,–,not substrates,–
protamine,–,–,–,–,–,–,–,–,–,–,–,–,–,not a good substrate; also recorded: did not serve as substrates,"32P incorporated (γ-PAK [4]; 2 μg protein substrate, 20 units active γ-PAK, 15 min at 30° C.): 0 pmol; substrate for γ-PAK (in words) (γ-PAK [4]; listed as Protamine): not substrates; rel rate (γ-PAK [4]; relative to histone 2B = 100): 0%"
